We go through seven compounds from PMC11237035, “Glutathione determines chronic myeloid leukemia vulnerability to an inhibitor of CMPK and TMPK” (Communications Biology, 2024).

Data set [1] concerns T315I-Bcr-Abl-32D cells. Description: CCK-8 cell viability assay, T315I-Bcr-Abl-32D cells. The class given is cell-based, mouse.
The test system of data set [2] is WT-Bcr-Abl-32D cells. Description: CCK-8 cell viability assay, WT-Bcr-Abl-32D cells. It is filed as cell-based, mouse. The settings on record: WT-Bcr-Abl, single replicates.
Data set [3] has as its system untransformed 32D cells. The data set can be described thus: CCK-8 cell viability assay, untransformed 32D cells. It is filed as cell-based, mouse. As to conditions: for viability (0 = 100): Untransformed; for sensitivity compared among WT-, T315I-Bcr-Abl-32D and untransformed 32D progenitor cells: viability assays. The method, then: After 72 h, viability assays were performed.
3 independent experiments. Asterisks denote ***p<0.001 from non-paired two-tailed

Data set [4] relates to T315I-Bcr-Abl-32D cells. Description: DNA fiber assay (replication speed), T315I-Bcr-Abl-32D cells. The class given is cell-based, mouse. As to conditions: T315I-Bcr-Abl-32D cells, BSO 12.5 μM, 16 h. The method, then: (§1) The workflow of DNA fiber labeling (Right). The representative labeled fibers are shown below. Replication speed in kb/min was calculated by the measured length of IdU (green) linking to CldU (red) in μm with a conversion factor of 0.34 μm/kb divided by the duration of the labeling pulse (Scale bar = 10 μm). The gray triangle indicates the boundary between red fluorescence and green fluorescence. c The measurement of intracellular ROS by the fluorescence intensity of CellROX Green staining using flow cytometric analysis. Data are presented as mean intensity relative to untransformed 32D cells. d, e The measurement of GSSG and GSH. […] Schematic illustration of the metabolic path U-^13C glutamine incorporation into the GSH (left). Gray and white circles indicate ^13C-label, and unlabeled ^12C, respectively. The traced isotopologue abundance of GSH is shown (right).
(§2) The DNA fiber assay was performed as described previously. Briefly, cells were sequentially treated with the medium containing 25 μM of CldU (Sigma-Aldrich, C6891) and then 250 μM of IdU (Sigma-Aldrich, I7125) for 20 min. After washing, cells were suspended in PBS (1000 cells/ μL). 2 μL of cell suspension was spotted on slides. […] The lengths of red- and green-labeled fibers were determined by FluoView3.0 software (Olympus).

Data set [5] has as its system T315I-Bcr-Abl-32D cells. Description: GSH/GSSG-Glo measurement, T315I-Bcr-Abl-32D cells. It is filed as cell-based, mouse. The text has this: (§3) The GSH/GSSG-Glo™ Assay Kit (Promega, V6611) was used for luminescent-based measurement of cellular GSH and GSSG by Tecan Spark 10 microplate reader.
In data set [6] the test system is WT-Bcr-Abl-32D cells. The data set can be described thus: DNA fiber assay (replication speed), WT-Bcr-Abl-32D cells. It is filed as cell-based, mouse. As to conditions: NAC 1 mM, 16 h. How it is done: as §1, §2
The subject of data set [7] is WT-Bcr-Abl-32D cells. Description: GSH/GSSG-Glo measurement, WT-Bcr-Abl-32D cells. The class given is cell-based, mouse.
Text: as §3

Another data set addresses T1, hTMPK (Homo sapiens, UniProt P23919).
T1 sequence (P23919 1-212): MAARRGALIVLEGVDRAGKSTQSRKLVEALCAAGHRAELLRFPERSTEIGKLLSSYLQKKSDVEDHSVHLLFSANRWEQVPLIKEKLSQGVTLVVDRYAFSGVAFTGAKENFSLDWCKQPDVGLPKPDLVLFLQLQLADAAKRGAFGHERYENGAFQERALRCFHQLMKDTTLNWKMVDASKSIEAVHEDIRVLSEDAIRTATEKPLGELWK
Description: biochemical.

For a further data set, the target named is T2, hCMPK (Homo sapiens, UniProt P30085).
T2 sequence (P30085 1-196): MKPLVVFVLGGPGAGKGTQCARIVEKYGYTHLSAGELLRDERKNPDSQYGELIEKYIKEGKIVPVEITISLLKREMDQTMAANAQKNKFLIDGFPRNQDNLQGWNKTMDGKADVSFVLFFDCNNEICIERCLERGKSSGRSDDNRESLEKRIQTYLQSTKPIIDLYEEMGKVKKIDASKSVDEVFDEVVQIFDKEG
Description: biochemical.

Data set [8] deals with T315I-Bcr-Abl-32D cells. Description: Western blot of tyrosine phosphorylation and Bcr-Abl downstream signaling, T315I-Bcr-Abl-32D cells. It is filed as cell-based, mouse. From the text: (§4) Supplementary Figure 1. Bcr-Abl-activated downstream signaling in WT- and
(§5) The comparison of Bcr-Abl downstream signaling (Akt, mTorC1, and Stat5) in WT- […]

For data set [9], the system named is WT-Bcr-Abl-32D cells. Description: Western blot of tyrosine phosphorylation and Bcr-Abl downstream signaling, WT-Bcr-Abl-32D cells. It is filed as cell-based, mouse.
Text: as §4, §5

Data set [10] deals with untransformed 32D cells. Description: Western blot of tyrosine phosphorylation, untransformed 32D cells. It is filed as cell-based, mouse. As to conditions: 32D progenitor cells, 2 μM, 4 h, pY99 Western blot.

Where “and” joins values, the source holds several entries; their conditions need not be identical. Equal values may be shown once.

Description for hCMPK: (§6) Activity assay was measured using the spectrophotometric method by coupling ADP formation to NADH oxidation catalyzed by pyruvate kinase and lactate dehydrogenase as described previously[20]. Each reaction contained 0.4 μg TMPK or 0.3 μg CMPK was incubated at 25 °C followed by using Tecan Spark 10 microplate reader to detect the change in NADH measurement at 340 nm absorption according to the manufacturer’s instructions.
Description for hTMPK: as §6

On to `O=c1[nH]cc(F)c(=O)[nH]1` [Compound 5-FU, 5-Fluorouracil], for which the viability at 0.05 µM in the data set on T315I-Bcr-Abl-32D cells [1] (Mus musculus, T315I-Bcr-Abl, 5-FU 50 nM, single replicates, read-out: viability (0 = 100)) was determined as 84.6%. For the same compound, the viability at 0.4 µM in the data set with T315I-Bcr-Abl-32D cells [1] (Mus musculus, T315I-Bcr-Abl, 5-FU 400 nM, single replicates, read-out: viability (0 = 100)) stood at 15%. Further, the “viability (0 = 100)” value with T315I-Bcr-Abl-32D cells [1] (T315I-Bcr-Abl, 5-FU 50 nM, single replicates) was 83.5736 and 80.5085 and 76.4058; in the data set on T315I-Bcr-Abl-32D cells [1] (T315I-Bcr-Abl, 5-FU 100 nM, single replicates) it was 62.3323 and 96.9038 and 91.1488 and 80.2051; in the data set on T315I-Bcr-Abl-32D cells [1] (T315I-Bcr-Abl, 5-FU 200 nM, single replicates), 35.7891 and 57.1142 and 42.6177 and 58.9854; in the data set on T315I-Bcr-Abl-32D cells [1] (T315I-Bcr-Abl, 5-FU 400 nM, single replicates), 14.7128 and 7.825 and 11.0955; in the data set with WT-Bcr-Abl-32D cells [2] (5-FU 50 nM) it was 107.177 and 94.9972 and 84.194 and 79.9956; in the data set on WT-Bcr-Abl-32D cells [2] (5-FU 100 nM), 65.5177 and 99.8323 and 74.733 and 69.6887. For the same compound, the “viability (0 = 100)” value in the data set on WT-Bcr-Abl-32D cells [2] (5-FU 200 nM) was 39.9892 and 67.384 and 54.7054 and 48.7266; in the data set on WT-Bcr-Abl-32D cells [2] (5-FU 400 nM) it was 24.7745 and 56.1347 and 30.6822 and 26.6217; with untransformed 32D cells [3] (5-FU 50 nM, single replicates), 73.4167 and 117.13 and 106.182 and 85.6469; with untransformed 32D cells [3] (5-FU 100 nM, single replicates), 72.9576 and 93.7766 and 105.148 and 51.3899; in the data set on untransformed 32D cells [3] (5-FU 200 nM, single replicates), 35.4417 and 92.003 and 84.6699 and 48.1556; with untransformed 32D cells [3] (5-FU 400 nM, single replicates), 6.096 and 36.2787 and 21.177 and 24.9913. Moreover, the “sensitivity compared among WT-, T315I-Bcr-Abl-32D and untransformed 32D progenitor cells” value in the data set with untransformed 32D cells [3] is “similar”.
As for `CCCCS(=N)(=O)CCC(N)C(=O)O` (stereo not shown) [BSO, buthionine sulphoximine], in the data set on T315I-Bcr-Abl-32D cells [1] (T315I, BSO alone (JMF4073 0), single replicates), the “cell viability (% of NT, 0 JMF4073), Figure 5e” value is 99.4456 and 92 and 86.6884. The “growth of cells, BSO alone” value in the data set with T315I-Bcr-Abl-32D cells [1] (T315I-Bcr-Abl cells, BSO treatment alone) is “did not suppress the growth”. For the same compound, the “lengths of replication tracks” value in the data set with T315I-Bcr-Abl-32D cells [4] is on record as “reduced”. Further, in the data set with untransformed 32D cells [3] (32D cells, BSO 12.5 μM alone (JMF4073 0), single replicates), the “viability (vehicle, 0 = 100)” value was 83.2384 and 115 and 94.5481. Moreover, in the data set on T315I-Bcr-Abl-32D cells [5] (Figure 5c, T315I-Bcr-Abl, BSO vs NT = 100, single replicates), the GSH% was 10.69% and 9.7% and 22.3%. The “cellular level of GSH” value with T315I-Bcr-Abl-32D cells [5] (T315I-Bcr-Abl-32D cells, BSO 12.5 μM, 16 h) was “reduced”.
In the case of `CC(=O)N[C@@H](CS)C(=O)O` [NAC, N-Acetyl-Cysteine], the “cell viability (% of NT vehicle), Figure 5h” value with WT-Bcr-Abl-32D cells [2] (NAC with vehicle) is 96.5592 and 69.512 and 104.601. In addition, the “lengths of replication tracks” value with WT-Bcr-Abl-32D cells [6] is “increased lengths of replication tracks”. Moreover, the GSH% in the data set with WT-Bcr-Abl-32D cells [7] (Figure 5f, WT-Bcr-Abl, NAC vs NT = 100, single replicates) is 161.382% and 219.818% and 187.248% and 315.164%. Besides, the “cellular GSH level” value in the data set on WT-Bcr-Abl-32D cells [7] (WT-Bcr-Abl-32D cells, NAC 1 mM, 16 h) is “increased the cellular GSH level”.
Take `CCOC(=O)N1CCN(C(=O)Cn2sc3nc(C)cc(C)c3c2=O)CC1` [YMU1]: the IC50 at hTMPK was 720 nM; against hCMPK it was 1800 nM.
For `Nc1ccn([C@@H]2O[C@H](CO)[C@@H](O)[C@@H]2O)c(=O)n1` [ara-C, cytosine arabinoside], the “viability (0 = 100)” value with T315I-Bcr-Abl-32D cells [1] (T315I-Bcr-Abl, AraC 0.25 μM, single replicates) was 91.0147 and 59.6875 and 56.2982; in the data set with T315I-Bcr-Abl-32D cells [1] (T315I-Bcr-Abl, AraC 0.5 μM, single replicates) it was 23.443 and 24.5051 and 17.9316; with T315I-Bcr-Abl-32D cells [1] (T315I-Bcr-Abl, AraC 1 μM, single replicates), 4.479 and 5.149 and 3.231; in the data set on T315I-Bcr-Abl-32D cells [1] (T315I-Bcr-Abl, AraC 2 μM, single replicates), 0.8258 and 1.3128 and 0.8788; in the data set on WT-Bcr-Abl-32D cells [2] (AraC 0.25 μM), 45.2109 and 73.8346 and 101.332; with WT-Bcr-Abl-32D cells [2] (AraC 0.5 μM) it was 24.4529 and 41.8769 and 43.1257. For the same compound, the “viability (0 = 100)” value with WT-Bcr-Abl-32D cells [2] (AraC 1 μM) was 7.238 and 10.5227 and 12.1803; in the data set with WT-Bcr-Abl-32D cells [2] (AraC 2 μM), 1.535 and 1.964 and 2.059; in the data set with untransformed 32D cells [3] (AraC 0.25 μM, single replicates) it was 80.5922 and 25.4877 and 20.7295; in the data set with untransformed 32D cells [3] (AraC 0.5 μM, single replicates), 32.0177 and 10.1455 and 8.811; in the data set with untransformed 32D cells [3] (AraC 1 μM, single replicates) it was 12.3749 and 4.297 and 2.7153; in the data set on untransformed 32D cells [3] (AraC 2 μM, single replicates), 4.929 and -0.8077 and -0.4748. The “sensitivity compared among WT-, T315I-Bcr-Abl-32D and untransformed 32D progenitor cells” value with untransformed 32D cells [3] is “similar”.
In turn, `CC(C)(C)OC(=O)N1CCN(C(=O)Cn2sc3ccccc3c2=O)CC1` [JMF2977] showed an IC50 on hTMPK of 290 nM.
Turning to `Cc1ccc(C(=O)Nc2ccc(CN3CCN(C)CC3)c(C(F)(F)F)c2)cc1C#Cc1cnc2cccnn12` [ponatinib], the “Bcr-Abl downstream signals (pAkt-S473, pS6K-T389, pStat5-Y694)” value in the data set on T315I-Bcr-Abl-32D cells [8] and in the data set on WT-Bcr-Abl-32D cells [9] was “abolished these signals” throughout. In addition, the “level of overall tyrosine phosphorylation” value in the data set with T315I-Bcr-Abl-32D cells [8] and in the data set with WT-Bcr-Abl-32D cells [9] was “reduced” in each case. Besides, the “basal level of tyrosine phosphorylation” value with untransformed 32D cells [10] was “also reduced”.
